Measurements as given in patent publication US11479528B2, “Heat shock protein 90 inhibitors” (TAIPEI MEDICAL UNIVERSITY, priority 2017, dated 2022).
Read-outs that look alike come from different tables or passages of the source.

What was measured:
[1] = system: human colon HCT116 xenograft; assay: Human colon HCT116 xenograft model; settings: 100 mg/kg, po; for TGI, tumor growth inhibition: n = 7-8
Procedure: An in vivo study was conducted to evaluate the efficacy of compounds of formula (I) in suppressing tumor growth in a human colon HCT116 xenograft model.

[2] = system: liver Hep3B; assay: Sulforhodamine B (SRB) assay, liver Hep3B; format: cell-based; settings: Homo sapiens
Procedure: (§1) Human cancer cells were purchased from the American Type Culture Collection (Manassas, Va., USA). These cell lines were cultured in RPMI 1640 medium or DMEM supplemented with 10% FBS (v/v) and pencillin (100 U/mL)/streptomycin (100 ug/mL)/amphotericin B (0.25 ug/mL). Cultures were maintained at 37° C. in a humidified atmosphere of 5% CO2/95% air.
(§2) Cells were seeded in 96-well plates in medium with 5% fetal bovine serum. After 24 h, cells were fixed with 10% trichloroacetic acid to represent cell population at the time of drug addition (T0). After additional incubation of DMSO or drugs for 48 h, cells were fixed with 10% trichloroacetic acid and sulforhodamine B at 0.4% (w/v) in 1% acetic acid was added to stain cells. Unbound sulforhodamine B was washed out by 1% acetic acid and sulforhodamine B-bound cells were solubilized with 10 mmol/L Trizma base. The absorbance was read at a wavelength of 515 nm. Using the following absorbance measurements, such as time zero (T0), control growth (C), and cell growth in the presence of the drug (Tx), the percentage growth was calculated at each of the compound concentrations levels. Percentage growth inhibition was calculated as […].

[3] = Pharmacokinetic profiles in rat; settings: in vivo
Procedure: A pharmacokinetic study was conducted to evaluate the pharmacokinetic properties of compounds of formula (I).

[4] = Maximum tolerated dose and therapeutic index in vivo; settings: for MTD: in vivo, po
[5] = system: HUVEC cells; assay: Sulforhodamine B (SRB) assay, HUVEC; settings: for GI50: Homo sapiens, HUVEC
Procedure: as §1, §2

[6] = target: HSP90 α protein (Homo sapiens, UniProt P07900); assay: HSP90 ATP-binding / fluorescence polarization competition assay (enzyme inhibition)
Procedure: To assess the inhibition of HSP90 activity within a cellular context, cells were treated with certain substituted aromatic compounds of formula (I) and the inhibition of HSP90 ATP-binding activity in cells was determined by using an ATP pull-down assay. Cells were treated with the compounds for 24 hours and then lysed in TNESV buffer (50 mM Tris, 2 mM EDTA, […], 1 mM activated sodium orthovanadate, 25 mM NaF, 1% Triton X-100 [pH 7.5]) for 30 min at 4° C. Lysates were spun for 30 min at 12000 rpm at 4° C. Protein (200 ug) was incubated with conditioned γ-ATP-polyacrylamide resin in incubation buffer (10 mM Tris-HCl, 50 mM KCl, 5 mM MgCl2, 20 mM Na2MoO4, 0.01% Nonidet P-40) overnight at 4° C., rotating. The resin was then washed four times with incubation buffer. Bound proteins were isolated by boiling with SDS buffer. For the competition studies, fluorescence polarization assays were performed under the following conditions: each 96-well plate contained 5 nM fluorescent GM (geldanamycin), 30 nM HSP90 α protein, and tested inhibitor in a final volume of 100 uL. For each assay, background wells (buffer only), tracer controls (free, fluorescent GMonly), and bound GM controls (fluorescent GM in the presence of HSP90) were included on each assay plate. The fraction of tracer bound to HSP90 was correlated to the mP value and plotted against log 10 values of competitor concentrations. The inhibitor concentration at which 50% of bound GM was displaced was obtained by fitting the data.

[7] = system: breast MDA-MB-231; assay: Sulforhodamine B (SRB) assay, breast MDA-MB-231; format: cell-based; settings: Homo sapiens
Procedure: as §1, §2

[8] = system: lung A549; assay: Sulforhodamine B (SRB) assay, lung A549; format: cell-based, human; settings: Homo sapiens
Procedure: Human cancer cells were purchased from the American Type Culture Collection (Manassas, Va., USA).
Cells were seeded in 96-well plates in medium with 5% fetal bovine serum. […] Unbound sulforhodamine B was washed out by 1% acetic acid and sulforhodamine B-bound cells were solubilized with 10 mmol/L Trizma base. […] Using the following absorbance measurements, such as time zero (T0), control growth (C), and cell growth in the presence of the drug (Tx), the percentage growth was calculated at each of the compound concentrations levels. Percentage growth inhibition was calculated as […].

[9] = system: colorectal HCT116; assay: Sulforhodamine B (SRB) assay, colorectal HCT116; format: cell-based; settings: Homo sapiens
Procedure: as §1, §2

[10] = system: HSP90 client proteins, i.e., EGFR, Akt, CDK-4, and HSP70, in HCT-116 tumor cells; assay: Western blot of HSP90 client proteins in HCT-116 tumor cells; format: cell-based, human; settings: HCT-116 cells, 24 hours after treatment
Procedure: Western blot analysis was performed to detect cell apoptotic signaling activated by substituted aromatic compounds of formula (I). Cells were harvested by scraping with lysis buffer (1 mM EGTA, 1 mM EDTA, 150 mM NaCl, 1% Triton X-100, 2.5 mM sodium pyrophosphate, 1 mM PMSF, 1 mM Na3VO4, 1 ug/mL leupeptin, 1 ug/mL aprotinin, 5 mM NaF in 20 mM Tris-HCl buffer, pH 7.5). Cell lysates were centrifuged at 13,000 g for 30 min. Total protein was determined and equal amounts of protein were separated by SDS-PAGE and immunoblotted with specific antibodies. Proteins were visualized by enhanced chemiluminescence (Amersham, Buckinghamshire, UK).
Total cellular extracts were obtained 24 hours after treatment.

[11] = 48 h, read-out: GI50 Liver Hep3B
[12] = MDA-MB-231, 48 h, read-out: GI50 Breast MDA-MB-231
[13] = A549, 48 h, read-out: GI50 Lung A549
[14] = HCT-116, 48 h, read-out: GI50 Colorectal HCT116

**Q.** What does the source list for `CCN(C(=O)c1cc(C(C)C)c(O)cc1O)c1ccc2[nH]ccc2c1` [Compound 20c, N-ethyl-2,4-dihydroxy-N-(1H-indol-5-yl)-5-isopropylbenzamide]?
**A.** Loss of Body ([1]; qd × 7/5 on 2 off, Day 7): −15.4%; TGI, tumor growth inhibition ([1]; qd × 7/5 on 2 off): 33.1%; GI50 [2, 11]: 110 ± 20 nM; AUC(0-inf) ([3]; iv, 2 mg/kg): 234 ± 114 ng·h/mL; Vd ([3]; iv, 2 mg/kg): 9 ± 2.8 L/kg; clearance ([3]; iv, 2 mg/kg): 170 ± 64 mL/min/kg; half-life ([3]; iv, 2 mg/kg): 1.5 ± 0.5 h; AUC(0-inf) ([3]; po, 20 mg/kg): 499 ± 38 ng·h/mL; Cmax ([3]; po, 20 mg/kg): 67 ± 23 ng/mL; Tmax ([3]; po, 20 mg/kg): 2.7 ± 1.2 h; bioavailability ([3]; po, 20 mg/kg): 22%; half-life ([3]; po, 20 mg/kg): 5.9 ± 1.6 h; TI, Therapeutic Index, ratio of MTD to minimum efficacious dose (MED) [4]: 1; MTD [4]: 100 mg/kg; GI50 ([5]; 48 h, read-out: GI50 HUVEC): < 100 nM; IC50 [6]: 117 ± 9.62 nM; GI50 [7, 12]: 80 ± 10 nM; GI50 [8, 13]: 110 ± 10 nM; GI50 ([8]; A549, read-out: A549 GI50): 110 ± 10 nM; GI50 [9, 14]: 370 ± 50 nM; GI50 ([9]; HCT-116, read-out: HCT116 GI50): 370 ± 50 nM

**Q.** For `CCN(C(=O)c1cc(C(C)C)c(O)cc1O)c1ccncc1` [Compound 19b, N-ethyl-2,4-dihydroxy-5-isopropyl-N-(pyridin-4-yl)benzamide], which “TGI, tumor growth inhibition” value ([1]; qd) is on record?
**A.** 29.1%

**Q.** What about the GI50 ([2]; Table 1, SRB, 48 h, read-out: GI50 Liver Hep3B) of the same compound?
**A.** 100 ± 10 nM

**Q.** What about the Vd ([3]; iv, 2 mg/kg) of the same compound?
**A.** 12 ± 8.9 L/kg

**Q.** And the AUC(0-inf) ([3]; iv, 2 mg/kg, AUC(0-inf), IV (2 mg/kg))?
**A.** 442 ± 49 ng·h/mL

**Q.** What about the clearance ([3]; iv, 2 mg/kg, CL, IV (2 mg/kg)) of the same compound?
**A.** 75 ± 4.8 mL/min/kg

**Q.** And the half-life ([3]; iv, 2 mg/kg, T1/2, rat, IV (2 mg/kg))?
**A.** 8.1 ± 4.7 h

**Q.** And the Cmax ([3]; po, 20 mg/kg)?
**A.** 51 ± 9 ng/mL

**Q.** And the Tmax ([3]; po, 20 mg/kg)?
**A.** 0.3 ± 0.1 h

**Q.** What about the bioavailability ([3]; po, 20 mg/kg) of the same compound?
**A.** 11%

**Q.** And the AUC(0-inf) ([3]; po, 20 mg/kg, AUC(0-inf), PO (20 mg/kg))?
**A.** 485 ± 103 ng·h/mL

**Q.** And the half-life ([3]; po, 20 mg/kg, T1/2, rat, PO (20 mg/kg))?
**A.** 11 ± 7.6 h

**Q.** What about the GI50 ([5]; 48 h, read-out: GI50 HUVEC) of the same compound?
**A.** < 100 nM

**Q.** What about the IC50 ([6]; 5 nM fluorescent GM, 30 nM HSP90 α, read-out: HSP90 IC50 enzyme inhibition) of the same compound?
**A.** 109 ± 5.35 nM

**Q.** And the GI50 ([7]; MDA-MB-231, Table 1, SRB, 48 h, read-out: GI50 Breast MDA-MB-231)?
**A.** 80 ± 10 nM

**Q.** And the GI50 ([8]; A549, Table 1, SRB, 48 h, read-out: GI50 Lung A549)?
**A.** 120 ± 10 nM

**Q.** What about the GI50 ([8]; A549, Table 2, SRB, read-out: A549 GI50) of the same compound?
**A.** 120 ± 10 nM

**Q.** And the GI50 ([9]; HCT-116, Table 1, SRB, 48 h, read-out: GI50 Colorectal HCT116)?
**A.** 640 ± 410 nM

**Q.** What about the GI50 ([9]; HCT-116, Table 2, SRB, read-out: HCT116 GI50) of the same compound?
**A.** 640 ± 410 nM

**Q.** With `CC(C)c1cc(C(=O)N(C)c2ccc3[nH]ccc3c2)c(O)cc1O` [Compound 20b, 2,4-dihydroxy-N-(1H-indol-5-yl)-5-isopropyl-N-methylbenzamide] as the compound, how does the “Loss of Body” value ([1]; qd × 7/5 on 2 off, Day 5) read?
**A.** −8.5%

**Q.** And the “TGI, tumor growth inhibition” value ([1]; qd × 7/5 on 2 off)?
**A.** 37.7%

**Q.** What about the “expression levels of the chaperone HSP70” value [10] of the same compound?
**A.** increase

**Q.** What about the “levels of HSP90 client proteins (EGFR, Akt, CDK-4)” value [10] of the same compound?
**A.** substantial depletion

**Q.** And the GI50 [2, 11]?
**A.** 180 ± 40 nM

**Q.** And the GI50 ([2]; read-out: Hep3B GI50)?
**A.** 180 ± 40 nM

**Q.** What about the AUC(0-inf) ([3]; iv, 2 mg/kg) of the same compound?
**A.** 142 ± 25 ng·h/mL

**Q.** What about the Vd ([3]; iv, 2 mg/kg) of the same compound?
**A.** 18 ± 4.5 L/kg

**Q.** And the clearance ([3]; iv, 2 mg/kg)?
**A.** 237 ± 37 mL/min/kg

**Q.** What about the half-life ([3]; iv, 2 mg/kg) of the same compound?
**A.** 1.3 ± 0.3 h

**Q.** What about the AUC(0-inf) ([3]; po, 20 mg/kg) of the same compound?
**A.** 533 ± 154 ng·h/mL

**Q.** And the Cmax ([3]; po, 20 mg/kg)?
**A.** 82 ± 34 ng/mL

**Q.** What about the Tmax ([3]; po, 20 mg/kg) of the same compound?
**A.** 2.2 ± 1.8 h

**Q.** What about the bioavailability ([3]; po, 20 mg/kg) of the same compound?
**A.** 37%

**Q.** And the half-life ([3]; po, 20 mg/kg)?
**A.** 7.5 ± 1.3 h

**Q.** What about the “TI, Therapeutic Index, ratio of MTD to minimum efficacious dose (MED)” value [4] of the same compound?
**A.** <2.5

**Q.** And the MTD [4]?
**A.** < 250 mg/kg

**Q.** And the “TI, Therapeutic Index measured by GI50(HUVEC)/GI50(A549)” value ([5]; GI50(HUVEC)/GI50(A549))?
**A.** 3.4

**Q.** What about the GI50 ([5]; 48 h, read-out: GI50 HUVEC) of the same compound?
**A.** 570 ± 20 nM

**Q.** And the GI50 ([5]; read-out: HUVEC GI50)?
**A.** 570 ± 20 nM

**Q.** And the IC50 [6]?
**A.** 115 ± 10.7 nM

**Q.** And the GI50 [7, 12]?
**A.** 70 ± 10 nM

**Q.** And the GI50 ([7]; MDA-MB-231, read-out: MDA-MB-231 GI50)?
**A.** 70 ± 10 nM

**Q.** What about the GI50 [8, 13] of the same compound?
**A.** 170 ± 10 nM

**Q.** And the GI50 ([8]; A549, read-out: A549 GI50)?
**A.** 170 ± 10 nM

**Q.** And the GI50 [9, 14]?
**A.** 1000 ± 490 nM

**Q.** And the GI50 ([9]; HCT-116, read-out: HCT116 GI50)?
**A.** 1000 ± 490 nM
